For 35 compounds, IC50 results are on record in patent publication US10617680B2 (CELGENE QUANTICEL RESEARCH, INC., priority 2017, dated 2020).

The structures appear in SMILES notation.

The target of this assay is CBP (Homo sapiens (Human), UniProt Q92793). Briefly: In vitro CBP inhibition (AlphaScreen, biotinylated H4-tetraacetyl peptide). Format: binding. The following applies: AlphaScreen, Table 29; read-out: CBP IC50. As to the method:
The CBP-inhibitory activity of the compounds described herein was determined by calculating the IC50. More specifically, CBP inhibitor activity was assayed as follows: CBP was cloned and expressed in E. coli as His-tag protein and purified by Nickel affinity and gel-filtration chromatography. […] CBP binding and inhibition is assessed by monitoring the interaction of biotinylated H4-tetraacetyl peptide (AnaSpec, H4K5/8/12/16(Ac), biotin-labeled) with the target using the AlphaScreen technology (Perkin Elmer). In a 384-well ProxiPlate CBP (50 nM final) was combined with peptide (20 nM final) in 50 mM HEPES (pH 7.3), 10 mM NaCl, 0.25 mM TCEP, 0.1% (w/v) BSA, and 0.005% (w/v) Brij-35 either in the presence of DMSO (final 0.4% DMSO) or compound dilution series in DMSO. After 20 min incubation at room temp, Alpha-streptavidin donor beads and Nickel Chelate acceptor beads were added to a final concentration of 5 μg/mL.
The ability of the compounds disclosed herein to inhibit CBP activity was quantified and the respective IC50 value determined.

Sequence of CBP (Q92793 1081-1197): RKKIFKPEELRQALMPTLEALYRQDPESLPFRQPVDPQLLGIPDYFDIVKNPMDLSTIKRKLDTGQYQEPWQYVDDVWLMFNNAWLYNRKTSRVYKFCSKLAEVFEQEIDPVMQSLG

Take `Cn1cc(-c2cnn(Cc3ccccc3)c2)c(-c2ccc(F)cc2)cc1=O` [Example 149, 5-(1-benzyl-1H-pyrazol-4-yl)-4-(4-fluorophenyl)-1-methyl-pyridin-2(1H)-one]: the IC50 was less than 500 nM.
To `Cn1cc(-c2cn(C)c(=O)cc2C2CC2)cn1` [Example 144, 4-cyclopropyl-1-methyl-5-(1-methyl-1H-pyrazol-4-yl) pyridin-2(1H)-one] belongs less than 500 nM.
To `CC(C)COc1ccc(-c2cc(=O)n(C)cc2-c2cnn(-c3ccccc3C(=O)O)c2)cn1` [Example 232, 2-[4-(6-Isobutoxy-1′-methyl-6′-oxo-1′,6′-dihydro-[3,4′]bipyridinyl-3′-yl)-pyrazol-1-yl]-benzoic acid] belongs less than 500 nM.
To `CC(c1ccccc1)n1cc(-c2cn(C)c(=O)c3c2CCC3)cn1` (centres unmarked) [Example 33, 2-methyl-4-(1-(1-phenylethyl)-1H-pyrazol-4-yl)-2,5,6,7-tetrahydro-1H-cyclopenta[c]pyridin-1-one] belongs less than 500 nM; to `Cn1cc(-c2cnn(-c3cccc(Cl)c3C#N)c2)c(-c2ccc(N3CCCC3)nc2)cc1=O` [Example 349, 2-chloro-6-[4-[1-methyl-6-oxo-4-(6-pyrrolidin-1-yl-3-pyridyl)-3-pyridyl]pyrazol-1-yl]benzonitrile], less than 500 nM.
On to `COc1ccc(C(=O)O)c(-n2cc(-c3cn(C)c(=O)cc3-c3ccccc3)cn2)c1` [Example 267, 4-Methoxy-2-[4-(1-methyl-6-oxo-4-phenyl-1,6-dihydro-pyridin-3-yl)-pyrazol-1-yl]-benzoic acid], for which the IC50 is less than 500 nM.
For `Cn1cc(-c2cnn(C3CCOCC3)c2)c(-c2ccccc2)cc1=O` [Example 126, 1-methyl-4-phenyl-5-(1-(tetrahydro-2H-pyran-4-yl)-1H-pyrazol-4-yl) pyridin-2(1H)-one], the IC50 was less than 500 nM.
Consider `CCNC(=O)c1ccn(-c2cc(=O)n(C)cc2-c2cnn(Cc3ccccc3)c2)c1` [Example 81, 1-(5-(1-benzyl-1H-pyrazol-4-yl)-1-methyl-2-oxo-1,2-dihydro-pyridin-4-yl)-N-ethyl-1H-pyrrole-3-carboxamide], for which the IC50 is less than 500 nM.
For the compound `Cn1nc(-c2cn(C)c(=O)cc2-c2ccccc2)cc1-c1ccccc1` [Example 395, 1-methyl-5-(1-methyl-5-phenyl-1H-pyrazol-3-yl)-4-phenylpyridin-2(1H)-one], the IC50 is less than 500 nM.
To `CC(C)Nc1ncc(-c2cc(=O)n(C)cc2-c2cnn(-c3cccc(Cl)c3C#N)c2)cn1` [Example 331, 2-chloro-6-(4-(4-(2-(isopropylamino)pyrimidin-5-yl)-1-methyl-6-oxo-1,6-dihydropyridin-3-yl)-1H-pyrazol-1-yl)benzonitrile] belongs less than 500 nM.
For the compound `Cn1cc(-c2cnn(CCN3CCOCC3)c2)c(-c2ccccc2)cc1=O` [Example 130, 1-methyl-5-(1-(2-morpho-linoethyl)-1H-pyrazol-4-yl)-4-phenylpyridin-2(1H)-one], the IC50 is less than 500 nM.
To `Cn1cc(-c2cnn(-c3ccccc3C#N)c2)c(OCCN2CCOCC2)cc1=O` [Example 283, 2-(4-(1-methyl-4-(2-morpholinoethoxy)-6-oxo-1,6-dihydropyridin-3-yl)-1H-pyrazol-1-yl)benzonitrile] belongs less than 500 nM; to `Cn1cc(-c2cnn(Cc3ccccc3)c2)c(-c2cn[nH]c2)cc1=O` [Example 152, 5-(1-benzyl-1H-pyrazol-4-yl)-1-methyl-4-(1H-pyrazol-4-yl) pyridin-2(1H)-one], less than 500 nM; to `CCOc1cc(=O)n(C)cc1-c1cnn(-c2ccccn2)c1` [Example 253, 4-ethoxy-1-methyl-5-(1-(pyridin-2-yl)-1H-pyrazol-4-yl)pyridin-2(1H)-one], less than 500 nM.
As for `CN(C)c1ccc(-c2cc(=O)n(C)cc2-c2cnn(-c3cccc(F)c3C#N)c2)cn1` [Example 347, 2-{4-[6-(dimethylamino)-1′-methyl-6′-oxo-1′,6′-dihydro-[3,4′-bipyridine]-3′-yl]-1H-pyrazol-1-yl}-6-fluorobenzonitrile], the IC50 was less than 500 nM.
Consider `Cn1cc(-c2cnn(-c3cccc(F)c3C#N)c2)c(-c2ccc(N3CCCC3)nc2)cc1=O` [Example 350, 2-fluoro-6-[4-[1-methyl-6-oxo-4-(6-pyrrolidin-1-yl-3-pyridyl)-3-pyridyl]pyrazol-1-yl]benzonitrile], for which the IC50 is less than 500 nM.
To `Cn1cc(-c2cnn(-c3cccc(F)c3C#N)c2)c(-c2ccc(OCC3CC3)nc2)cc1=O` [Example 360, 2-[4-[4-[6-(cyclopropylmethoxy)-3-pyridyl]-1-methyl-6-oxo-3-pyridyl]pyrazol-1-yl]-6-fluoro-benzonitrile] belongs less than 500 nM.
Consider `CC(=O)NC[C@@H]1CCN(c2cc(=O)n(C)cc2-c2cnn(Cc3ccccc3)c2)C1` (stereo in doubt) [Example 89, N-{1-[5-(1-benzyl-1H-pyrazol-4-yl)-1-methyl-2-oxo-1,2-dihydro-pyridin-4-yl]-pyrrolidin-3-ylmethyl}-acetamide], for which the concentration for half-maximal inhibition (IC50) was less than 500 nM.
For the compound `CC(c1ccccc1)n1cc(-c2cn(C)c(=O)cc2Cl)cn1` (centres unmarked) [Example 38, 4-chloro-1-methyl-5-(1-(1-phenyl-ethyl)-1H-pyrazol-4-yl) pyridin-2(1H)-one], the IC50 was less than 500 nM.
To `CNOc1cc(=O)n(C)cc1-c1cnn(Cc2ccccc2)c1` [Example 170, 5-(1-benzyl-1H-pyrazol-4-yl)-1-methyl-4-((methylamino)oxy)pyridin-2(1H)-one] belongs less than 500 nM; to `CC(c1ccccc1)n1cc(-c2cc(F)c(=O)n(C)c2)cn1` (centres unmarked) [Example 26, 3-fluoro-1-methyl-5-(1-(1-phenylethyl)-1H-pyrazol-4-yl) pyridin-2(1H)-one], 500 to 5000 nM; to `CC(c1ccccc1)n1cc(-c2cn(C)c(=O)cc2N2CCC2)cn1` (centres unmarked) [Example 40, 4-(azetidin-1-yl)-1-methyl-5-(1-(1-phenylethyl)-1H-pyrazol-4-yl) pyridin-2(1H)-one], less than 500 nM.
To `CN(C)CCCOc1ccc(-c2cc(=O)n(C)cc2-c2cnn(-c3cccc(C4CC4)c3C#N)c2)cn1` [Example 382, 2-cyclopropyl-6-(4-(6-(3-(dimethylamino)propoxy)-1′-methyl-6′-oxo-1′,6′-dihydro-[3,4′-bipyridin]-3′-yl)-1H-pyrazol-1-yl)benzonitrile] belongs less than 500 nM.
For `CC(c1ccccc1)n1cc(-c2cn(C)c(=O)cc2OC2CCC2)cn1` (centres unmarked) [Example 49, 4-cyclobutoxy-1-methyl-5-(1-(1-phenylethyl)-1H-pyrazol-4-yl) pyridin-2(1H)-one], the IC50 was less than 500 nM.
To `CC(C)c1ccc(-c2cc(=O)n(C)cc2-c2cnn(-c3cccc(F)c3C#N)c2)cn1` [Example 375, 2-fluoro-6-[4-[4-(6-isopropyl-3-pyridyl)-1-methyl-6-oxo-3-pyridyl]pyrazol-1-yl]benzonitrile] belongs less than 500 nM; to `CCNc1ncc(-c2cc(=O)n(C)cc2-c2cnn(C(C)c3ccccc3)c2)cn1` (centres unmarked) [Example 311], less than 500 nM; to `CCOc1ccc(-c2cc(=O)n(C)cc2-c2cnn(-c3ccccc3C(=O)NC#N)c2)cn1` [Example 296, N-cyano-2-(4-(6-ethoxy-1′-methyl-6′-oxo-1′,6′-dihydro-[3,4′-bipyridin]-3′-yl)-1H-pyrazol-1-yl)benzamide], less than 500 nM.
To `CCS(=O)(=O)NC(=O)c1ccccc1-n1cc(-c2cn(C)c(=O)cc2C2CC2)cn1` [Example 303, Ethanesulfonic acid 2-[4-(4-cyclopropyl-1-methyl-6-oxo-1,6-dihydro-pyridin-3-yl)-pyrazol-1-yl]-benzoylamide] belongs less than 500 nM; to `Cc1c(-c2cnn(Cc3ccccc3)c2)ccc(=O)n1C` [Example 195, 5-(1-Benzyl-1H-pyrazol-4-yl)-1,6-dimethyl-1H-pyridin-2-one], more than 5000 nM.
As for `Cn1cc(-c2cnn(-c3cccc(F)c3C#N)c2)c(-c2ccc(NCC3CC3)nc2)cc1=O` [Example 346, 2-(4-{6-[(cyclopropylmethyl)amino]-1′-methyl-6′-oxo-1′,6′-dihydro-[3,4′-bipyridine]-3′-yl}-1H-pyrazol-1-yl)-6-fluorobenzonitrile], the concentration for half-maximal inhibition (IC50) was less than 500 nM.
To `Cn1cc(-c2cnn(-c3cccc(Cl)c3C#N)c2)c(-c2ccc(C3CCCC3)nc2)cc1=O` [Example 379, 2-chloro-6-(4-(6-cyclopentyl-1′-methyl-6′-oxo-1′,6′-dihydro-[3,4′-bipyridin]-3′-yl)-1H-pyrazol-1-yl)benzonitrile] belongs less than 500 nM.
To `Cn1cc(-c2cnn(-c3cccc(F)c3C#N)c2)c(-c2ccc(OC3CCCC3)nc2)cc1=O` [Example 361] belongs less than 500 nM.
To `Cn1ccc(-c2cc(=O)n(C)cc2-c2cnn(-c3ccccc3C#N)c2)cc1=O` [Example 221, 2-[4-(1,1′-Dimethyl-6,2′-dioxo-1,6,1′,2′-tetrahydro-[4,4′]bipyridinyl-3-yl)-pyrazol-1-yl]-benzonitrile] belongs less than 500 nM; to `Cn1cc(-c2cnn(-c3ccccc3C#N)c2)c(-c2ccc(C(=O)O)cc2)cc1=O` [Example 217, 4-{5-[1-(2-Cyano-phenyl)-1H-pyrazol-4-yl]-1-methyl-2-oxo-1,2-dihydro-pyridin-4-yl}-benzoic acid], less than 500 nM; to `Cn1cc(-c2cnn(-c3cccc(Cl)c3C#N)c2)c(-c2cnc(N3CCOCC3)nc2)cc1=O` [Example 335, 2-chloro-6-(4-(1-methyl-4-(2-morpholinopyrimidin-5-yl)-6-oxo-1,6-dihydropyridin-3-yl)-1H-pyrazol-1-yl)benzonitrile], less than 500 nM.
